Assay results as given in US8815847B2, “[1,2,4]thiadiazine 1,1-dioxide compounds for lowering serum uric acid” (Anadys Pharmaceuticals, Inc., priority 2011, dated 2014).

melting point: 203.8 to 205.7 °C
Structure (SMILES): CS(=O)(=O)Nc1ccc2c(c1)S(=O)(=O)N=C(C1=C(O)[C@@H]3C4CCC(CC4)[C@@H]3N(Cc3ccc(F)cc3)C1=O)N2
